Measured values reported in BindingDB's records for PubMed 11160626 (Japan Tobacco, 2001).

How the values were obtained:
Cannabinoid receptor 2 [1] = target: Cannabinoid receptor 2 (Mus musculus, UniProt P47936)
Cannabinoid receptor 1 [2] = target: Cannabinoid receptor 1 (Mus musculus, UniProt P47746)
Cannabinoid receptor 2 [3] = target: T1, Cannabinoid receptor 2 (Rattus norvegicus, UniProt Q9QZN9)
T1 sequence (Q9QZN9 whole entry): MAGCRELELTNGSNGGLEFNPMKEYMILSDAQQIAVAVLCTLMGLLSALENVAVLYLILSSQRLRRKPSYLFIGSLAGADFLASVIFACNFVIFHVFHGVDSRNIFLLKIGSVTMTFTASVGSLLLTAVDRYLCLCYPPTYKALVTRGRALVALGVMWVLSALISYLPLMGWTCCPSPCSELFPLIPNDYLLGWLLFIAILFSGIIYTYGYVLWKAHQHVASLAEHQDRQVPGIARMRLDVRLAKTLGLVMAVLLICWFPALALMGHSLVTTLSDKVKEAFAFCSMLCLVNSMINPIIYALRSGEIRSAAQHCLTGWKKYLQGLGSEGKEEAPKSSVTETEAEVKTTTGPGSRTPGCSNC

Cannabinoid receptor 1 [4] = target: Cannabinoid receptor 1 (Rattus norvegicus, UniProt P20272)
Chain of Cannabinoid receptor 1 (Rattus norvegicus, UniProt P20272) (P20272 whole entry): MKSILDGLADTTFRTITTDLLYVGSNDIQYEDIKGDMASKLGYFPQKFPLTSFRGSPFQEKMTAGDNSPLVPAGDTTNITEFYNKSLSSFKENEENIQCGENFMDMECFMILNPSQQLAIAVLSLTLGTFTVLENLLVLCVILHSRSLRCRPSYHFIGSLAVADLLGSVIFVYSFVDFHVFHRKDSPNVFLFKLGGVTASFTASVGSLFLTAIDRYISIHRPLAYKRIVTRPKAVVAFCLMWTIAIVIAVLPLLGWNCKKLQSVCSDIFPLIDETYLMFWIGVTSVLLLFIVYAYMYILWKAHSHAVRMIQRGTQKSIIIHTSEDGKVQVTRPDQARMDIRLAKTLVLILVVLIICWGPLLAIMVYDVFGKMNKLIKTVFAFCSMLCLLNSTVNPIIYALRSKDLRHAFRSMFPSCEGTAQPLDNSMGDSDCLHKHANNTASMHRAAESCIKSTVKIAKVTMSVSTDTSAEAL

Chain of Cannabinoid receptor 2 (Mus musculus, UniProt P47936) (P47936 whole entry): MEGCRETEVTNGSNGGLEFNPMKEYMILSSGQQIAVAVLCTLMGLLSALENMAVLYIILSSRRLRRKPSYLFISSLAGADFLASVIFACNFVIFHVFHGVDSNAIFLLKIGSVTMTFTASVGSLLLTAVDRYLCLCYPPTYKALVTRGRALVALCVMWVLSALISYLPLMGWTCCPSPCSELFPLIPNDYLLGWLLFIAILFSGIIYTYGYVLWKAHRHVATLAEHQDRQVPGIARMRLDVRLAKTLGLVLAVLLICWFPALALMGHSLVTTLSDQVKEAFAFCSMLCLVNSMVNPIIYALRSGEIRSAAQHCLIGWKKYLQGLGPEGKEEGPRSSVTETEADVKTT
Chain of Cannabinoid receptor 1 (Mus musculus, UniProt P47746) (P47746 whole entry): as the sequence (P20272 whole entry) above, with E95D counted along it

Work on `Cc1c(C(=O)c2cccc3ccccc23)c2cccc3c2n1[C@H](CN1CCOCC1)CO3` [WIN55212-2] yielded a Ki (Cannabinoid receptor 2 [1]) of 0.56 nM.

`CCCCCc1cc(O)c2c(c1)OC(C)(C)[C@@H]1CCC(C)=CC21` (stereo partly specified) [Tetrahydrocannabinol] was tested, and the Ki (Cannabinoid receptor 2 [1]) was 1.73 nM.

`CCCCCOc1c(OC)ccc2cc(C(=O)NCc3ccc4c(c3)OCO4)c(=O)[nH]c12` [N-(1,3-Benzodioxole-5-ylmethyl)-2-oxo-7-methoxy-8-pentoxy-1,2-dihydro-3-quinolinecarboxamide] gave a Ki (Cannabinoid receptor 1 [2]) of 1060 nM, a Ki (Cannabinoid receptor 2 [3]) of 0.38 nM and a Ki (Cannabinoid receptor 1 [4]) of 1050 nM. It also gave a Ki (Cannabinoid receptor 2 [1]) of 1.55 nM.
